Reference: US7795305B2, “CDDO-compounds and combination therapies thereof” (Board of Regents, The University of Texas System, priority 2000, dated 2010)
Structures can show the parent of a compound that is named as a salt. Numbered stars: 1 amine (or outer) side, 2 acyl side, 3 side chain; on linkers, the order of the positions; unused ones are H or OH. Bridge positions count the residues as written; N and C are the ends. Square brackets hold non-standard residues; d marks the D form. Peptide text beside a SMILES is read from it. I, II: the chains in the order shown. Actinocin(9to1) = Cc1c2oc3c(C)ccc(C(=O)[*:1])c3nc-2c(C(=O)[*:2])c(N)c1=O; NMeV = CN[C@H](C(=O)O)C(C)C; Sar = CNCC(=O)O

Assays:
[1] = cited from earlier work; for peak concentration in plasma: usual clinical doses; for terminal half-life: plasma
primary AML cells = experiment: Apoptosis in primary AML samples, subG1 DNA flow cytometry; assay type: cell-based, human; conditions: ara-C 1 μM, alone or combined
Description: Subjects. Samples of bone marrow or peripheral blood were obtained for in vitro studies from patients with newly diagnosed or recurrent AML with high (>70%) blast count and from patients with myeloid transformation of chronic myeloid leukemia (CML). Informed consent was obtained following institutional guidelines. Mononuclear cells were separated by Ficoll-Hypaque (Sigma Chemical Co) density-gradient centrifugation.
(§1) Suspension culture of leukemic cells. Leukemic cell lines were cultured at a density of 3.0×10^5 cells/mL, and AML mononuclear cells at 5×10^5 cells/mL in the presence or absence of indicated concentrations of CDDO-Me. Appropriate amounts of DMSO (final concentration<0.05%) was included as a control. For cytotoxicity studies, 1 μM ara-C was added to the cultures.
Cell kinetic and DNA fragmentation studies. The cell cycle kinetics was determined by staining cells with acridine orange for cellular DNA and RNA content followed by flow cytometeric analysis as described. […] Ten thousand events were stored in list mode for analysis. The percentage of cells in the “sub G1 peak” defined the proportion of apoptotic cells in the tested populations. […] Cell-cycle kinetics was analyzed using ModFit software (Verity Software House, Inc., Topsham, Me.). […]

[2] = cited from earlier work
[3] = cited from earlier work; remark: listed apart in the source
HL-60 cells [4] = experiment: Differentiation by CD11b/CD14 flow cytometry; assay type: cell-based, human
Description: Immunophenotyping. The PE-conjugated anti-CD11b, FITC-conjugated anti-CD14 monoclonal antibody (mAb) (Becton Dickinson) and PE-conjugated anti-CD95 mAb (PharMingen) were used at a 1/10 dilution.
Enhancement in cellular differentiation using combinations of CDDO with ATRA were tested. […] Cell differentiation was analyzed by flow cytometry (CD14/CD11b staining). […] These experiments were repeated. […]
Finally, the inventors examined if CDDO-Me combined with ATRA would enhance differentiation. […] […] Next, combined treatment with CDDO-Me and RXR-specific ligand were tested for potentiation of anti-leukemic effects.

HL-60 cells [5] = experiment: Cell cycle (S+G2M) with RXR-specific ligand; assay type: cell-based, human; conditions: 1 μM of LG-100268, combined treatment with CDDO-Me
Description: Cell kinetic and DNA fragmentation studies. The cell cycle kinetics was determined by staining cells with acridine orange for cellular DNA and RNA content followed by flow cytometeric analysis as described. Samples were measured in a FACScan flow cytometer (Becton Dickinson, San Jose, Calif.) using the 488-nm line of a […] argon laser and filter settings for green (530 nm) (DNA) and red (585 nm) (RNA) fluorescence. Ten thousand events were stored in list mode for analysis. The percentage of cells in the “sub G1 peak” defined the proportion of apoptotic cells in the tested populations. […] Cell-cycle kinetics was analyzed using ModFit software (Verity Software House, Inc., Topsham, Me.).
Finally, the inventors examined if CDDO-Me combined with ATRA would enhance differentiation. HL-60 cells were cultured with of 0.1 μM of CDDO-Me for 72 hrs, alone or in combination with 1 μM ATRA. […] At 48 hrs, 67.4% in CDDO-Me-treated cells and 63.5% in ATRA-treated cells were CD11b+ (compared with 40% in DMSO controls), while 85% of cells were positive when both compounds were given simultaneously. These studies were repeated 3 times and yielded essentially identical results. Next, combined treatment with CDDO-Me and RXR-specific ligand were tested for potentiation of anti-leukemic effects. […]

HL-60 cells [6] = experiment: CDDO-Me plus LG-100268 in HL-60 cells (Table 6); assay type: cell-based, human; design: unit not given here; conditions: 24 hrs
Description: Finally, the inventors examined if CDDO-Me combined with ATRA would enhance differentiation. HL-60 cells were cultured with of 0.1 μM of CDDO-Me for 72 hrs, alone or in combination with 1 μM ATRA. […] At 48 hrs, 67.4% in CDDO-Me-treated cells and 63.5% in ATRA-treated cells were CD11b+ (compared with 40% in DMSO controls), while 85% of cells were positive when both compounds were given simultaneously. These studies were repeated 3 times and yielded essentially identical results. Next, combined treatment with CDDO-Me and RXR-specific ligand were tested for potentiation of anti-leukemic effects. RXR-specific ligand LG-100268 (Ligand Pharmaceuticals) used at 10, 100 nm and 1 μM enhanced killing of HL-60 cells in a dose-dependent manner (Table 6).

HL-60 cells [7] = experiment: Viable cell count of leukemic cells in suspension culture (Trypan blue); assay type: cell-based, human; conditions: Homo sapiens, HL-60, read-out: concentration required for 50% inhibition of HL-60 cells; PPARγ ligands compared to CDDO
Description: as §1
CDDO. […] The percentage of proliferating cells were analyzed by FCM.
CDDO-Me. […] Mechanism of growth inhibition was analyzed on cell cycle and apoptosis in HL-60 cells.

HL-60 cells [8] = experiment: Differentiation by CD11b/CD14 flow cytometry; assay type: cell-based, human; conditions: 7 days
primary AML samples = experiment: Annexin V staining of primary AML samples exposed to PPARγ ligands; assay type: cell-based, human; conditions: 72 hrs; 15d-PGJ2 5 μM; BRL49653, L-805645, GW347845X 25 μM
Description: Annexin V staining. Cells were washed in phosphate-buffered saline (PBS) and resuspended in 100 μl of binding buffer containing Annexin V (Roche Diagnostic Corporation, Indianapolis, Ind.). Cells were analyzed by flow cytometry after the addition of propidium iodide (PI). Annexin V binds to those cells that express phosphatidylserine on the outer layer of the cell membrane, and PI stains the cellular DNA of those cells with a compromised cell membrane. This allows for live cells (unstained with either fluorochrome) to be discriminated from apoptotic cells (stained only with annexin V) and necrotic cells (stained with both annexin and PI).

## O=NN(CCCl)C(=O)NC1CCCCC1 [Lomustine, 1-(2-chloro-ethyl)-3-cyclohexyl-1 nitrosourea]
[1]; oral radioactive lomustine 30 mg/m^2 to 100 mg/m^2
  radioactivity excreted as degradation products within 24 hours: about half of the radioactivity

## COc1cccc2c1C(=O)c1c(O)c3c(c(O)c1C2=O)C[C@@](O)(C(C)=O)C[C@@H]3O[C@H]1C[C@H](N)[C@H](O)[C@H](C)O1 [Daunorubicin, 5,12-Naphthacenedione, (8S-cis)-8-acetyl-10-[(3-amino-2,3,6-trideoxy-α-L-lyxo-hexanopyranosyl)oxy]-7,8,9,10-tetrahydro-6,8,11-trihydroxy-10-methoxy-, hydrochloride]
[1]; in vivo
  oral absorption: Oral absorption is poor
  elimination half-life: about 19 hr
  fraction secreted/excreted into the bile: ~40%

## Nc1ccn([C@@H]2O[C@H](CO)[C@@H](O)[C@@H]2O)c(=O)n1 [ara-C, reference compound]
Primary AML cells; CDDO 1 μM, n=23 (DMSO control 27.7±3.7%)
  apoptosis in AML samples: 41.6±4.6%
Primary AML cells; CDDO-Me 1 μM, n=6 (DMSO control 24.9±7.4%)
  cell killing in AML samples: 39.8±8.2%

## N.N.[Cl][Pt][Cl] [Cisplatin]
[1]; in vivo
  oral absorption: not absorbed orally

## TRAIL: member of tumor necrosis factor family of cytokines
[2]; 250-500 μg (Gliniak et al, 1999)
  effect of chemotherapy in mice bearing human colon carcinoma tumors: synergistically enhanced effect of chemotherapy
[2]; daily injections of 200-1000 μg (14 days) (Walczak et al., 1999)
  survival of tumor-bearing mice: significantly increased survival

## CC[C@]1(O)C[C@@H]2CN(CCc3c([nH]c4ccccc34)[C@@](C(=O)OC)(c3cc4c(cc3OC)N(C)[C@H]3[C@@](O)(C(=O)OC)[C@H](OC(C)=O)[C@]5(CC)C=CCN6CC[C@]43[C@@H]65)C2)C1 [Vinblastine]
[1]; in vivo
  fraction of dose excreted/recovered in the urine: Approximately 15%
  fraction recovered in the feces after biliary excretion: about 10%
[1]
  peak concentration in plasma: approximately 0.4 mM

## N[C@@H](Cc1ccc(N(CCCl)CCCl)cc1)C(=O)O [Melphalan, 4-[bis(2-chloroethyl)amino]-L-phenylalanine]
[3]; multiple myeloma, oral administration
  patients with favorable response: about one third to one half

## CS(=O)(=O)OCCCCOS(C)(=O)=O [busulfan, 1,4-butanediol dimethanesulfonate]
[3]; previously untreated chronic myelogenous leukemia
  adults obtaining hematologic remission: Approximately 90%

## O=C(O)CCCc1ccc(N(CCCl)CCCl)cc1 [Chlorambucil, 4-[bis(2-chlorethyl)amino] benzenebutanoic acid]
[1]; in vivo
  oral absorption: rapidly and completely absorbed
[1]
  terminal half-life: ~1.5 h

## COc1cccc2c1C(=O)c1c(O)c3c(c(O)c1C2=O)C[C@@](O)(C(=O)CO)C[C@@H]3O[C@H]1C[C@H](N)[C@H](O)[C@H](C)O1 [Doxorubicin, 5,12-Naphthacenedione, (8s-cis)-10-[(3-amino-2,3,6-trideoxy-a-L-lyxo-hexopyranosyl)oxy]-7,8,9,10-tetrahydro-6,8,11-trihydroxy-8-(hydroxyacetyl)-1-methoxy-hydrochloride]
[1]; in vivo
  oral absorption: absorbed poorly
  elimination half-life: about 30 hr
  fraction of dose excreted/recovered in the urine: a few percent

## CC1=C(/C=C/C(C)=C/C=C/C(C)=C/C(=O)O)C(C)(C)CCC1 [ATRA, all-trans-retinoic acid, reference compound]
[3]; acute promyelocytic leukemia (Warrell et al., 1991)
  patients achieving complete remissions: over 90%
HL-60 cells [4]; 48 hrs, CDDO-Me 0.1 μM, ATRA 1 μM, alone or simultaneously (DMSO controls 40%)
  CD11b+ cells: 63.5%
HL-60 cells [4]; CDDO 0, ligand 1 nM
  percentage of CD14 (+) live cells (FCM): 4%
HL-60 cells [4]; CDDO 0, ligand 10 nM
  percentage of CD14 (+) live cells (FCM): 5.2%
HL-60 cells [4]; CDDO 0, ligand 100 nM
  percentage of CD14 (+) live cells (FCM): 4.4%

## Cc1c2oc3c(C)ccc(C(=O)N[C@@H]4C(=O)N[C@H](C(C)C)C(=O)N5CCC[C@H]5C(=O)N(C)CC(=O)N(C)[C@@H](C(C)C)C(=O)O[C@@H]4C)c3nc-2c(C(=O)N[C@@H]2C(=O)N[C@H](C(C)C)C(=O)N3CCC[C@H]3C(=O)N(C)CC(=O)N(C)[C@@H](C(C)C)C(=O)O[C@@H]2C)c(N)c1=O [Actinomycin D] (I: T[dV]P[Sar][NMeV] / II: T[dV]P[Sar][NMeV]; ester I:1-I:C, II:1-II:C; linker I:N-II:N via Actinocin(9to1))
[1]; in vivo
  elimination half-life: about 36 hr
  fraction of dose excreted/recovered in the urine: 10%
  fraction secreted/excreted into the bile: Half of the dose

## COc1cccc2c1C(=O)c1c(O)c3c(c(O)c1C2=O)C[C@@](O)([C@H](C)O)C[C@@H]3O[C@H]1C[C@H](N)[C@H](O)[C@H](C)O1 [daunorubicinol]
[1]; in vivo
  elimination half-life: about 27 hr

## CC[C@]1(O)C[C@H]2CN(CCc3c([nH]c4ccccc34)[C@@](C(=O)OC)(c3cc4c(cc3OC)N(C=O)[C@H]3[C@@](O)(C(=O)OC)[C@H](OC(C)=O)[C@]5(CC)C=CCN6CC[C@]43[C@@H]65)C2)C1 [Vincristine]
[1]
  terminal half-life: about 24 hours
  peak concentration in plasma: approximately 0.4 mM

## Cc1cc2c(cc1C1(c3ccc(C(=O)O)cn3)CC1)C(C)(C)CCC2(C)C [LG-100268]
HL-60 cells [5]
  percentage of cells in S+G2M decreased by: 50%
HL-60 cells [4]; CDDO 0, ligand 1 nM
  percentage of CD14 (+) live cells (FCM): 16.6%
HL-60 cells [4]; CDDO 0, ligand 10 nM
  percentage of CD14 (+) live cells (FCM): 9.6%
HL-60 cells [4]; CDDO 0, ligand 100 nM
  percentage of CD14 (+) live cells (FCM): 9.4%
HL-60 cells [6]; CDDO-Me 0, LG-100268 10 nM
  Table 6 value: CDDO-Me-induced monocytic differentiation in HL-60 cells: 6.8
HL-60 cells [6]; CDDO-Me 0, LG-100268 100 nM
  Table 6 value: CDDO-Me-induced monocytic differentiation in HL-60 cells: 6.2
HL-60 cells [6]; CDDO-Me 0, LG-100268 1 μM
  Table 6 value: CDDO-Me-induced monocytic differentiation in HL-60 cells: 6.3

## CO[C@@]12[C@H](COC(N)=O)C3=C(C(=O)C(C)=C(N)C3=O)N1C[C@@H]1N[C@@H]12 [Mitomycin]
[1]; after 30 mg bolus injection
  time required to reduce the serum concentration by 50%: 17 min
[1]; in vivo
  fraction of dose excreted/recovered in the urine: Approximately 10%

## Bleomycin
[1]; in vivo
  fraction of dose excreted/recovered in the urine: 60% to 70

## CN(CCOc1ccc(CC2SC(=O)NC2=O)cc1)c1ccccn1 (centres unmarked) [BRL49653, rosiglitazone]
HL-60 cells [7]
  IC50: 25 to 50 µM
HL-60 cells [8]; 10 μM (15d-PGJ2 column head prints M)
  CD11b %: 38.9%
HL-60 cells [8]; 25 μM
  CD11b %: 48.5%
Primary AML samples
  annexin-V-positive cells: 7%
